This test deals with Human immunodeficiency virus. The test is described as follows: Inhibition of HIV reverse transcriptase at 200 ug/ml.
As usually defined, the inhibition is how much of the control response was suppressed. A higher inhibition goes with a strong effect. For the compound `O=C(O)/C=C/c1ccc(O)c(O)c1`, the inhibition was found to be 0%. As for `C/C=C(\C)C(=O)O[C@H]1[C@H](O)[C@@]2(CO)[C@H](CC1(C)C)C1=CC[C@@H]3[C@@]4(C)CC[C@H](O[C@@H]5O[C@H](C(=O)OCCC)[C@@H](O)[C@H](O[C@@H]6O[C@H](CO)[C@@H](O[C@@H]7OC[C@@H](O)[C@H](O)[C@H]7O)[C@H](O)[C@H]6O)[C@H]5O)C(C)(C)[C@@H]4CC[C@@]3(C)[C@]1(C)[C@@H](O)[C@H]2O`, the figure is 20.1%; as for `O=C(/C=C/c1ccc(O)c(O)c1)O[C@H](Cc1ccc(O)c(O)c1)C(=O)O`, 57.4%.

(Values after ChEMBL document CHEMBL1158332, “Saniculoside N from Sanicula europaea L” (J Nat Prod, 1997).)
